Key:
Assay type in all cases: cell-based
[1] = test system: CD36; assay: qPCR of CD36 mRNA in PMA-treated KG1 cells; details: FCBD and FCBD:std 7 μg/mL, Palmitic acid 150 μM, versus vehicle control
Description: (§1) Cell cultures—The lung cancer cell line A549 (ATCC® CCL-185™) was cultured in DMEM (01-055-1A, Biological Industries, Israel) growth media supplemented with 10% FBS (04-127-1A, Biological Industries, Israel), 1% […], 1% pen-strep and plasmocin. Macrophage cell line KG1 (ATCC® CCL-246™) was cultured in IMDM (01-058-1A; Biological Industries, Israel) containing 20% FBS and 1% pen-strep and plasmocin. IMDM media supplemented with 10 ng/mL PMA, 5% FBS, 1% pen-strep and plasmocin was used as stimulating environment for the differentiation of KG1 cells. Differentiated cells with typical morphology were attached to the plate surface within 1-2 days of initiation^39.
(§2) Quantitative real-time (qRT) PCR—qRT PCR was effected as described^38. Briefly, cells were seeded in a 6-well plate at a concentration of 1.5×10^6 cells in 3 mL per well. Following 24 hours incubation, cells were treated with extract/fraction/compounds for 6 hours. Cells were harvested and RNA was extracted using TRI reagent (T9424, Sigma Aldrich, USA). RNA was reverse-transcribed in a total volume of 20 μL (PB30.11-10; qPCRBIO), according to manufacturer's protocol. PCR was performed in triplicate using qPCR SyGreen Blue Mix (PB20.16-20, qPCRBIO) and a StepOnePlus system (Applied Biosystems). […]

[2] = test system: IL-8 secreted from A549 cells; assay: IL-8 secretion from TNFα-treated A549 cells (ELISA); details: for IL-8 secretion: at the concentration and ratio found in 10 μg/ml FCBD:std
Description: as §1
(§3) Determination of IL levels and cell viability—IL-6 and IL-8 levels were determined as described previously^40 with the following modifications: A549 cells were plated at 5×10^4 cells per well in DMEM complete media (400 μL) in a 24-well cell culture plate. Cells were allowed to attach and incubated with complete DMEM at 37° C. in a humidified atmosphere containing 5% CO2-95% air. Following overnight incubation, cells were treated with 300 ng/mL TNFα with or without plant extract or fraction/compounds. IL-6 and IL-8 secretion levels were analyzed after 4 hours of incubation. Supernatant samples were taken and tested using IL-6 and IL-8 ELISA kits (DY206 and DY208 respectively, R&D Systems, Minneapolis, Minn., USA). Dexamethasone was used as a positive control. For cell viability, an Alamar Blue (resazurin) assay was performed on each well as described previously^40. For dose response assays, data points were connected by non-linear regression lines of the sigmoidal dose-response relation. GraphPad Prism (GraphPad Software Inc., San Diego, USA) was employed to produce dose-response curves and IC50 doses were calculated using nonlinear regression analysis.

[3] = test system: IL-6 secreted from A549 cells; assay: IL-6 secretion from TNFα-treated A549 cells (ELISA); details: for IL-6 secretion: at the concentration and ratio found in 10 μg/ml FCBD:std
Description: as §1, §3

[4] = test system: IL-6; assay: qPCR of IL-6 mRNA in PMA-treated KG1 cells (differentiated macrophages); details: 6 hours, FCBD and FCBD:std 7 μg/mL, Dex 8 μg/mL, relative to control
Description: as §1, §2

[5] = test system: CCL2; assay: qPCR of CCL2 mRNA in PMA-treated KG1 cells (differentiated macrophages); details: 6 hours, FCBD and FCBD:std 7 μg/mL, Dex 8 μg/mL, relative to control
Description: as §1, §2

[6] = test system: IL-8; assay: qPCR of IL-8 mRNA in PMA-treated KG1 cells (differentiated macrophages); details: 6 hours, FCBD and FCBD:std 7 μg/mL, Dex 8 μg/mL, relative to control
Description: as §1, §2

[7] = test system: IL-8 secreted from KG1 cells; assay: IL-8 secretion from KG1 cells treated with TNFα (ELISA); details: 300 ng/mL TNFα, 4 hours, FCBD or FCBD:std 10 μg/mL or indicated concentrations, Dex 4 μg/mL
Description: as §1
Determination of IL levels and cell viability—IL-6 and IL-8 levels were determined as described previously^40 with the following modifications: A549 cells were plated at 5×10^4 cells per well in DMEM complete media (400 μL) in a 24-well cell culture plate. Cells were allowed to attach and incubated with complete DMEM at 37° C. in a humidified atmosphere containing 5% CO2-95% air. […] IL-6 and IL-8 secretion levels were analyzed after 4 hours of incubation. […] GraphPad Prism (GraphPad Software Inc., San Diego, USA) was employed to produce dose-response curves and IC50 doses were calculated using nonlinear regression analysis.

[8] = higher or lower concentrations of CBD than 3.0 μg/mL

In the case of `CCCCCCCCCCCCCCCC(=O)O` [PA, Palmitic acid], the “mRNA expression of CD36” value [1] is reported as “reduced”.

For `C=C(C)[C@@H]1CCC(C)=C[C@H]1c1c(O)cc(CCCCC)cc1O` [CBD, cannabidiol], the “IL-8 levels, anti-inflammatory activity” value ([2]; CBD alone at 3.0 μg/mL) was “showed anti-inflammatory activity”, the IL-8 secretion [2] was “did not lead to such a reduction” and the “activity in reducing IL-8 levels” value [2, 8] was “lower and/or non-significant activity”. The “IL-6 levels, anti-inflammatory activity” value ([3]; CBD alone at 3.0 μg/mL) was “showed anti-inflammatory activity”, the IL-6 secretion [3] was “did not lead to such a reduction” and the “activity in reducing IL-6 levels” value [3, 8] was “lower and/or non-significant activity”.

For `Cc1c(C(=O)NN2CCCCC2)nn(-c2ccc(Cl)cc2Cl)c1-c1ccc(I)cc1` [CB1 IA], the “IL-8 levels, inverse agonist alone” value ([2]; treatment with IA only) was “reduction” and the “IL-6 levels, inverse agonist alone” value ([3]; treatment with IA only) was “reduction”.

`CCCc1cc(O)c2c(c1)OC(C)(C)[C@@H]1CCC(C)=C[C@@H]21` [THCV, tetrahydrocannabivarin] was tested, and the IL-8 secretion [2] was “did not lead to such a reduction” and the IL-6 secretion [3] was “did not lead to such a reduction”.

In the case of `CCCCCc1cc(O)c(C/C=C(\C)CCC=C(C)C)c(O)c1` [CBG, cannabigerol], the IL-8 secretion [2] is reported as “did not lead to such a reduction” and the IL-6 secretion [3] is reported as “did not lead to such a reduction”.

For `C[C@@H]1C[C@H]2[C@@H]3CCC4=CC(=O)C=C[C@]4(C)[C@@]3(F)[C@@H](O)C[C@]2(C)[C@@]1(O)C(=O)CO` [dexamethasone, Dexamethasone], the “increase of IL-6 mRNA expression level” value [4] was “no effect”, the “increase of CCL2 mRNA expression level” value [5] was “no effect” and the “increase of IL-8 mRNA expression level” value [6] was “no effect”. For the same molecule, the “IL-8 secretion from KG1 cells” value [7] was “no effect”.
